From article PMC4166900, “Covalent modification of a ten-residue cationic antimicrobial peptide with levofloxacin” (Frontiers in Chemistry, 2014)
Where two headings read alike, the source gives them in different places. Marks after values point to notes of the source that are not given here. Peptide text beside a SMILES is read from it. * marks the point of attachment. Levofloxacinoyl = C[C@H]1COc2c(N3CCN(C)CC3)c(F)cc3c(=O)c(C(=O)*)cn1c23

Columns and labels:
E. coli (#25922) [1] = test: microbe, parasite or virus in culture; conditions: Escherichia coli, 3 h, pH 7.4, read-out: EC50 (95% confidence interval), E. coli, resazurin read-out, triplicate
Procedure: (§4) Frozen enumerated aliquots of bacteria were thawed and diluted into sterile buffer to a bacterial concentration of 2 × 10^6 CFU/mL. Wells of a 96-well polypropylene microtiter plate (Greiner Bio-One) were charged with 50 μL aliquots of buffer solutions containing serially diluted peptide, conjugate, or drug followed by 50 μL aliquots of diluted bacterial cells. Assays for each compound were prepared in triplicate. Control wells were prepared where the peptide/conjugate/drug solution was replaced with an equal volume of buffer alone. Following addition of bacteria, the microtiter plates were incubated for 3 h at either 37°C (E. coli) or 30°C (B. cereus). […] Plates were then immediately placed in a SpectraMax Gemini EM plate-reading fluorometer for overnight monitoring of fluorescence (530 nmex/590 nmem) at either 37°C (E. coli) or 30°C (B. cereus) with intermittent shaking. Onset time of half maximal fluorescence (T0.5) observed for each well was computed using the microplate data analysis software. In order to determine bacterial survival, it was necessary to establish correlations between bacterial concentration (CFU/mL) and T0.5 values. Therefore, standard curve equations were generated in preliminary experiments using bacterial suspensions serially diluted (~10^6 CFU/mL—10^3 CFU/mL) in each of the three buffers used in the antibacterial assays.
(§5) (1) log(CFU/mLE.coli)=−2.00 × 10^−4(T0.5)+Yint
(§6) (3) Bacterial Survival=Smin+(Smax−Smin)/ (1+10^log(EC50)−log(PC)∗HS)
(§7) Assays were conducted under three different ionic strength (μ) buffer conditions in order to assess the effect salt concentration had on antibacterial effectiveness. The lowest ionic strength buffer used was 10 mM NaPO4, pH 7.4, which corresponded to 26 mM total ionic strength. […] Bacterial survival results were plotted against the log of the concentration of conjugate, peptide, or free drug. EC50 values for each assessed compound were calculated by fitting the survival data to equation 3, which models typical sigmoidal dose-response behavior using a variable Hill slope. An F test was used to assess statistical significance, with the alpha level set to 0.05.

B. cereus (#11778) [2] = test system: B. cereus (#11778)
Procedure: as §4
(§8) (2) log(CFU/mLB.cereus)=−1.00 × 10^−4(T0.5)+Yint
as §6, §7

[3] = Distribution coefficient (1-octanol / 10 mM NaPO4 pH 7.4); conditions: for logD at 10 min: pH 7.4
Procedure: In these experiments, P4LC, Pep-4 or free LVFX dissolved in 100 μL of 10 mM NaPO4 (pH 7.4) buffer was combined with 100 μL of 1-Octanol in a 1.5 mL low binding polypropylene microcentrifuge tube (Corning). Each tube was vortexed for 10 min and the contained solvent allowed to settle. […] The maximal concentrations of Pep-4 and P4LC in the calibration curves were also established using amino acid analysis (UC Davis Genome Center Proteomics Core Facility). […] Indolicidin and melittin were used as reference peptides in these studies. […] The D7.4 values generated for P4LC, Pep-4, LVFX, indolicidin, and melittin were calculated (equation 5) based on their respective concentrations in the aqueous phase ([peptide]PO4buffer) of the water/octanol biphasic system and their concentrations in the initial stock solution ([peptide]total). Values are averaged from six replicates.
(5) logD7.4=log(([peptide]total−[peptide]PO4buffer)/([peptide]PO4buffer)) =log ([peptide]octanol/[peptide]PO4buffer)
The concentration ratios of each compound between the two liquid phases were used to establish distribution coefficients (D7.4). Indolicidin and melittin were used as reference peptides in these studies.

B. cereus membranes [4] = test: DiSC(3)5 membrane depolarization assay; type: cell-based; conditions: B. cereus 2 × 10^7 CFU/mL; 10 mM NaPO4 pH 7.4; 33 μM P4LC and Pep-4, 126 μM Pep-4/LVFX, 93 μM LVFX; melittin 33 μM = maximal; monitored 30 min; triplicate
Procedure: (§1) Enumerated frozen aliquots of E. coli and B. cereus cells were thawed and washed 3x with buffer (10 mM NaPO4, pH 7.4). The washed cells were diluted in 10 mM NaPO4 buffer containing 10 ug/mL DiSC(3)5 to afford a concentration of 4 × 10^7 CFU/mL. Bacterial suspension was added to the wells of a black polypropylene microtiter plate (Greiner Bio-One) in 100 μL aliquots, and fluorescence was monitored (rt, with lid on) using a SpectraMax Gemini EM plate-reading fluorometer (622 nmex/ 670 nmem) until fluorescence quenching stabilized and maximal DiSC(3)5 uptake was achieved. […] The final concentrations of each assessed compound in the wells were 33 μM (P4LC and Pep-4), 126 μM (Pep-4/LVFX), and 93 μM (LVFX), while final bacterial concentrations were 2 × 10^7 CFU/mL. Assays were performed in triplicate for each compound assessed. […] The fluorescence kinetics data sets were normalized by setting emitted fluorescence to 0 at t = 0 s and presenting fluorescence intensity values as a fraction of maximal fluorescence observed for melittin.
(§2) For membrane depolarization and perturbation experiments, fluorescence data was analyzed by comparing best-fit curves (GraphPad Prism). Fluorescence kinetic curves were fit to a polynomial regression model (equation 4) to allow for statistical comparison of the fluorescence data via an F test, with all four best-fit parameters used as criteria. […]

E. coli membranes [5] = test: DiSC(3)5 membrane depolarization assay; type: cell-based; conditions: E. coli 2 × 10^7 CFU/mL; 10 mM NaPO4 pH 7.4; 33 μM P4LC and Pep-4, 126 μM Pep-4/LVFX, 93 μM LVFX; melittin 33 μM = maximal; monitored 30 min; triplicate
Procedure: as §1, §2

B. cereus (#11778) [6] = test: microbe, parasite or virus in culture; conditions: Bacillus cereus, 3 h
Procedure: as §4, §8, §6, §7

B. cereus membranes [7] = test: SYTOX green membrane perturbation assay; type: cell-based; conditions: 10 mM NaPO4 pH 7.4, 33 μM P4LC, 33 μM Pep-4, 126 μM Pep-4/LVFX, 93 μM LVFX, melittin = maximal, biological triplicates
Procedure: (§3) Enumerated frozen aliquots of E. coli and B. cereus cells were thawed and washed 3x with buffer (10 mM NaPO4, pH 7.4). The washed cells were diluted to a concentration of 4 × 10^7 CFU/mL in 10 mM NaPO4 (pH 7.4) buffer containing 5 μM SYTOX Green, and the resulting suspension then stored in the dark for ~20 min. The bacterial suspension was then distributed in 100 μL aliquots to wells of a black polypropylene microtiter plate (Greiner Bio-One). […] The fluorescence of each well was immediately monitored (without the lid) using a SpectraMax Gemini EM plate-reading fluorometer (485/520 nmem). […] A negative control containing only bacteria and SYTOX Green was used to determine background fluorescence, and maximal perturbation of the bacterial cell membranes was established using melittin. The fluorescence kinetics data sets were normalized by setting emitted fluorescence to 0 at t = 0 s and presenting fluorescence intensity values as a fraction of maximal fluorescence observed for melittin.
as §2

E. coli membranes [8] = test: SYTOX green membrane perturbation assay; type: cell-based; conditions: 10 mM NaPO4 pH 7.4, 33 μM P4LC, 33 μM Pep-4, 126 μM Pep-4/LVFX, 93 μM LVFX, biological triplicates
Procedure: as §3, §2

E. coli (#25922) [9] = conditions: for EC50: read-out: EC50 (95% confidence interval), E. coli, resazurin read-out, triplicate
Procedure: as §4, §5, §6, §7

[10] = ionic strength μ1 = 26 mM (10 mM NaPO4, pH 7.4), 3 h incubation at 37°C
[11] = ionic strength μ2 = 111 mM (10 mM NaPO4 : cation-adjusted PBS 1:1, pH 7.4), 3 h at 37°C
[12] = ionic strength μ3 = 167 mM (cation-adjusted PBS, pH 7.4), 3 h at 37°C, * = estimated, lower survival boundary set to 0
[13] = read-out: EC50 (95% confidence interval), B. cereus, ionic strength μ2 = 111 mM (10 mM NaPO4 : cation-adjusted PBS 1:1, pH 7.4), 3 h at 30°C, resazurin read-out, triplicate, * = estimated, lower survival boundary set to 0

`C[C@H]1COc2c(N3CCN(C)CC3)c(F)cc3c(=O)c(C(=O)O)cn1c23` [LVFX, Levofloxacin] showed an EC50 (E. coli (#25922) [1]; [10]) of 2.81 nM, an EC50 (E. coli (#25922) [1]; [11]) of 2.23 nM and an EC50 (E. coli (#25922) [1]; [12]) of 2.77 nM. The EC50 (B. cereus (#11778) [2]; [13]) was 591 nM, the “D7.4 fold greater than P4LC” value ([3]; 1-octanol / 10 mM NaPO4 pH 7.4, ratio of D7.4 values) was “about 4.5 fold” and the “mean maximal DiSC(3)5 fluorescence relative to melittin (membrane depolarization)” value (B. cereus membranes [4]) was 2.5%. The “mean maximal DiSC(3)5 fluorescence relative to melittin (membrane depolarization)” value (E. coli membranes [5]) was 8.4%, the EC50 (B. cereus (#11778) [6]; pH 7.4, read-out: EC50 (95% confidence interval)) was 981 nM and the EC50 (B. cereus (#11778) [6]; pH 7.4, read-out: EC50 (95% confidence interval), B. cereus, ionic strength μ1 = 26 mM (10 mM NaPO4, pH 7.4), 3 h incubation at 30°C, resazurin read-out, triplicate) was 212 nM. For the same compound, the “SYTOX Green fluorescence increase relative to melittin (membrane perturbation)” value (B. cereus membranes [7]) was “No increase in fluorescence” and the “mean maximal SYTOX Green fluorescence relative to melittin (membrane perturbation)” value (E. coli membranes [8]) was “No increase in fluorescence”.
For `C[C@H]1COc2c(N3CCN(C)CC3)c(F)cc3c(=O)c(C(=O)NCCCC[C@H](NC(=O)[C@H](CCCCNC(=O)c4cn5c6c(c(N7CCN(C)CC7)c(F)cc6c4=O)OC[C@@H]5C)NC(=O)[C@H](CCCNC(=N)N)NC(=O)[C@H](CCCNC(=N)N)NC(=O)[C@H](CO)NC(=O)[C@H](CO)NC(=O)[C@H](CCCNC(=N)N)NC(=O)[C@H](CCCNC(=N)N)NC(=O)CNC(=O)[C@H](CCCNC(=N)N)NC(=O)c4cn5c6c(c(N7CCN(C)CC7)c(F)cc6c4=O)OC[C@@H]5C)C(N)=O)cn1c23` [P4LC] (Levofloxacinoyl-RGRRSSRRK(Levofloxacinoyl)K(Levofloxacinoyl)-NH2), the EC50 (B. cereus (#11778) [2]; read-out: EC50 (95% confidence interval), B. cereus, ionic strength μ1 = 26 mM (10 mM NaPO4, pH 7.4), 3 h incubation at 30°C, resazurin read-out, triplicate) was 21.8 nM, the EC50 (B. cereus (#11778) [2]; [13]) was 2170 nM and the EC50 (B. cereus (#11778) [2]; read-out: EC50 (95% confidence interval), B. cereus, ionic strength μ3 = 167 mM (cation-adjusted PBS, pH 7.4), 3 h at 30°C, resazurin read-out, triplicate, * = estimated, lower survival boundary set to 0) was 40000 nM. It also gave a logD at 10 min [3] of -1.65, an EC50 (E. coli (#25922) [9]; [10]) of 16.7 nM and an EC50 (E. coli (#25922) [9]; [11]) of 1710 nM. For the same compound, the EC50 (E. coli (#25922) [9]; [12]) was 1510 nM.
In the case of `N=C(N)NCCC[C@H](NC(=O)CNC(=O)[C@@H](N)CCCNC(=N)N)C(=O)N[C@@H](CCCNC(=N)N)C(=O)N[C@@H](CO)C(=O)N[C@@H](CO)C(=O)N[C@@H](CCCNC(=N)N)C(=O)N[C@@H](CCCNC(=N)N)C(=O)N[C@@H](CCCCN)C(=O)N[C@@H](CCCCN)C(N)=O` [Pep-4] (H-RGRRSSRRKK-NH2), the EC50 (B. cereus (#11778) [2]; #11778, 3 h, pH 7.4) is reported as 27.1 nM, the logD at 10 min [3] is reported as -2.57 and the “EC50 (95% confidence interval)” value (E. coli (#25922) [9]; #25922, 3 h, pH 7.4) is reported as ~29.4 ^* (21.9–35.4)^* μM.
For `CC[C@H](C)[C@H](N)C(=O)N[C@@H](CC(C)C)C(=O)N1CCC[C@H]1C(=O)N[C@@H](Cc1c[nH]c2ccccc12)C(=O)N[C@@H](CCCCN)C(=O)N[C@@H](Cc1c[nH]c2ccccc12)C(=O)N1CCC[C@H]1C(=O)N[C@@H](Cc1c[nH]c2ccccc12)C(=O)N[C@@H](Cc1c[nH]c2ccccc12)C(=O)N1CCC[C@H]1C(=O)N[C@@H](Cc1c[nH]c2ccccc12)C(=O)N[C@@H](CCCN=C(N)N)C(=O)N[C@@H](CCCN=C(N)N)C(N)=O` [indolicidin], the logD at 10 min [3] was 2.3.
`CC[C@H](C)[C@H](NC(=O)CN)C(=O)NCC(=O)N[C@@H](C)C(=O)N[C@H](C(=O)N[C@@H](CC(C)C)C(=O)N[C@@H](CCCCN)C(=O)N[C@H](C(=O)N[C@@H](CC(C)C)C(=O)N[C@H](C(=O)N[C@H](C(=O)NCC(=O)N[C@@H](CC(C)C)C(=O)N1CCC[C@H]1C(=O)N[C@@H](C)C(=O)N[C@@H](CC(C)C)C(=O)N[C@H](C(=O)N[C@@H](CO)C(=O)N[C@@H](Cc1c[nH]c2ccccc12)C(=O)N[C@H](C(=O)N[C@@H](CCCCN)C(=O)N[C@@H](CCCNC(=N)N)C(=O)N[C@@H](CCCCN)C(=O)N[C@@H](CCCNC(=N)N)C(=O)N[C@@H](CCC(N)=O)C(=O)N[C@@H](CCC(N)=O)C(N)=O)[C@@H](C)CC)[C@@H](C)CC)[C@@H](C)O)[C@@H](C)O)C(C)C)C(C)C` [melittin, Melittin] showed a logD at 10 min [3] of -0.46.
